# Results taken from article PMC7582705, “Structure-Based Discovery of Novel Chemical Classes of Autotaxin Inhibitors” (International Journal of Molecular Sciences, 2020).
# pIC50: −log10 of the molar value.
# How the values were obtained:
# [1] = molecular target: T1, ATX (Homo sapiens, UniProt Q13822); test: Amplex Red Lyso-phospholipase D assay, human ATX; format: biochemical; set-up: purchased Sino Biological; conditions: for pIC50: Table S2, Sino hATX 2nM; for inhibition at 30 µM: read-out: %inhibition at 30uM
# Experimental: All compounds proposed were assessed for their ATX inhibitory activity in vitro using the Amplex Red assay. The Amplex Red Lyso-phospholipase D assay is a fluorometry-based assay providing a sensitive method for measuring Lyso-phospholipase D (ATX) activity in vitro. In this enzyme-coupled assay, ATX activity is monitored indirectly using 10-acetyl-3,7-dihydrophenoxazine (Amplex Red reagent), a sensitive fluorogenic probe for H2O2. ATX initially cleaves the Lysophosphatidylcholine (LPC) substrate to yield choline and Lysophosphatidic acid (LPA), while choline gets subsequently oxidized by choline oxidase to betaine and H2O2. Lastly, H2O2, in the presence of horseradish peroxidase (HRP), reacts with Amplex Red reagent in a 1:1 stoichiometry to generate the highly fluorescent product resorufin.
# The inhibition assay was performed as previously described with some modifications in order to accommodate the newly-discovered lag phase in ATX kinetics. To this end, and in order to provide adequate time to the hydrolysis of LPC by ATX, we added a 30min incubation period between ATX, inhibitors and LPC. Briefly, 2 μL of different concentrations of inhibitors diluted in DMSO (Sigma-Aldrich, St. Louis, MO, USA) were incubated with 50 µL of ATX 8 nM (human or mouse ATX from Sino Biological), and 48 µL reaction buffer (50 mM Tris-Cl pH 8.0 from Thermo Fisher Scientific, Waltham, MA, USA and 5 mM CaCl2 from Honeywell-Fluka, Charlotte, NC, USA) in a black 96-well microplate for 15 min at 37 °C. Thence, another 50 µL of reaction buffer with 200 μM LPC substrate 16:0 (Avanti Polar Lipids Inc, Alabaster, AL, USA) ([…]) was added to the reaction mixture and incubated for 30 min at 37 °C in order for ATX to convert LPC to LPA and choline. Finally, 50 µL of working solution containing 200 μM Amplex Red (Invitrogen, Carlsbad, CA, USA), 4 U/mL HRP (Sigma-Aldrich, St. Louis, MO, USA), 0.4 U/mL choline oxidase (Sigma-Aldrich, St. Louis, MO, USA) in 50 mM Tris-HCl pH 8.0 and 5 mM CaCl2 was added to measure the produced choline. The reaction was monitored at 37 °C in a fluorescence plate reader using excitation at 530 nm and reading at 590 nm, every 5 min for 30 min. The velocity of the reaction and the remaining activity of ATX were calculated at the linear phase of the reaction and dose-response inhibition graphs were plotted with GraphPad Software (GraphPad Software, San Diego, CA, USA). […] In order to evaluate a possible effect of the compounds on the second (choline oxidase) and third (HRP) enzymes of the Amplex Red assay, we also performed the assay in the absence of ATX but in the presence of the compounds. Instead of ATX, we added choline chloride at a final concentration of 2 µM so as the second and third steps of the assay could proceed normally.
# [2] = molecular target: T1, ATX; test: IC50 Eleanna (Table S2, method not described); format: biochemical; conditions: Table S2; read-out: IC50 Eleanna
# [3] = read-out: in vitro IC50 (Sino hATX 2nM)
pIC50 ([1]; in vitro IC50 (Sino hATX 2nM)),pIC50 [2],"inhibition at 30 µM ([1]; Table S2, at 30uM) [%]","pIC50 [1, 3]","%inhibition at 30uM ([1]; Table S2, at 30uM) [%]",Structure (SMILES)
< 4.52,6.22,4.2,–,–,"Cc1ccccc1-n1nc2c(c1NC(=O)c1cccc3ccccc13)C[S+]([O-])C2 (stereo not drawn) [SC-3, N-[2-(2-methylphenyl)-5-oxo-4,6-dihydrothieno[3,4-c]pyrazol-3-yl]naphthalene-1-carboxamide]"
< 4.52,< 5.30,–,–,–,"O=S(=O)(c1ccc(F)cc1)N1C=Cc2ccccc2C1c1c[nH]c2ccccc12 (stereo not drawn) [SC-4, 2-(4-fluorophenyl)sulfonyl-1-(1H-indol-3-yl)-1H-isoquinoline]"
4.52,5.66,43,–,–,"O=C(Cc1cccc2ccccc12)Nc1c2c(nn1-c1ccccc1)CS(=O)(=O)C2 [SC-5, N-(5,5-dioxo-2-phenyl-4,6-dihydrothieno[3,4-c]pyrazol-3-yl)-2-naphthalen-1-ylacetamide]"
< 4.52,< 5.30,–,–,–,"O=C(Nc1c2c(nn1-c1ccccc1)CS(=O)(=O)C2)c1cccc2ccccc12 [SC-6, N-(5,5-dioxo-2-phenyl-4,6-dihydrothieno[3,4-c]pyrazol-3-yl)naphthalene-1-carboxamide]"
< 4.52,< 5.30,–,–,–,"O=C(Cc1cccc2ccccc12)Nc1c2c(nn1-c1ccccc1)C[S+]([O-])C2 (stereo not drawn) [SC-7, 2-naphthalen-1-yl-N-(5-oxo-2-phenyl-4,6-dihydrothieno[3,4-c]pyrazol-3-yl)acetamide]"
< 4.52,< 5.30,–,–,–,"COc1ccc(C2SCCN2S(=O)(=O)c2ccc3c(c2)Cc2ccccc2-3)cc1 (stereo not drawn) [SC-8, 3-(9H-fluoren-2-ylsulfonyl)-2-(4-methoxyphenyl)-1,3-thiazolidine]"
< 4.52,< 5.30,–,–,–,"O=C(Nc1c2c(nn1-c1ccccc1)C[S+]([O-])C2)c1cccc2ccccc12 (stereo not drawn) [SC-9, N-(5-oxo-2-phenyl-4,6-dihydrothieno[3,4-c]pyrazol-3-yl)naphthalene-1-carboxamide]"
< 4.52,< 5.30,–,–,–,"Cn1c(-c2ccccc2)c(C(=O)Cn2cnc3ccsc3c2=O)c2ccccc21 [SC-10, 3-[2-(1-methyl-2-phenylindol-3-yl)-2-oxoethyl]thieno[3,2-d]pyrimidin-4-one]"
< 4.52,6.05,–,–,–,"O=C1Cc2cc(C(=O)CSc3nc4ccccc4n3-c3ccccc3)ccc2N1 [SC-12, 5-[2-(1-phenylbenzimidazol-2-yl)sulfanylacetyl]-1,3-dihydroindol-2-one]"
< 4.52,< 5.30,9.6,–,–,"O=C(Nc1c2c(nn1-c1ccc(F)cc1)C[S+]([O-])C2)c1cccc2ccccc12 (stereo not drawn) [SC-14, N-[2-(4-fluorophenyl)-5-oxo-4,6-dihydrothieno[3,4-c]pyrazol-3-yl]naphthalene-1-carboxamide]"
< 4.52,< 5.30,13.6,–,–,"Cc1ccc(-n2nc3c(c2NC(=O)c2cccc4ccccc24)C[S+]([O-])C3)cc1 (stereo not drawn) [SC-16, N-[2-(4-methylphenyl)-5-oxo-4,6-dihydrothieno[3,4-c]pyrazol-3-yl]naphthalene-1-carboxamide]"

# The remaining lines, values behind:
Structure (SMILES),pIC50 ([1]; in vitro IC50 (Sino hATX 2nM)),pIC50 [2],"inhibition at 30 µM ([1]; Table S2, at 30uM) [%]","pIC50 [1, 3]","%inhibition at 30uM ([1]; Table S2, at 30uM) [%]"
"COCCCN1C(=O)c2[nH]nc(-c3ccccc3)c2C1c1ccc(C(C)C)cc1 (stereo not drawn) [KM-2, 5-(3-methoxypropyl)-3-phenyl-4-(4-propan-2-ylphenyl)-1,4-dihydropyrrolo[3,4-c]pyrazol-6-one]",< 4.52,< 5.30,–,–,–
"CCc1ccccc1NC(=O)C1c2ccccc2C(=O)N(CCOC)C1c1cccs1 (stereo not drawn) [KM-4, N-(2-ethylphenyl)-2-(2-methoxyethyl)-1-oxo-3-thiophen-2-yl-3,4-dihydroisoquinoline-4-carboxamide]",< 4.52,< 5.30,–,–,–
"CCOC(=O)c1c(CN2CCCCC2)n(-c2ccccc2)c2cc(Br)c(OC)cc12 [KM-6, ethyl 6-bromo-5-methoxy-1-phenyl-2-(piperidin-1-ylmethyl)indole-3-carboxylate]",< 4.52,5.35,20.6,–,–
"COc1ccccc1C(=O)NCc1nc2ccccc2n1Cc1cc(C)ccc1C [KM-9, N-[[1-[(2,5-dimethylphenyl)methyl]benzimidazol-2-yl]methyl]-2-methoxybenzamide,]",< 4.52,5.30,17.1,–,–
"Cc1ccc(C)c(NC(=O)CSc2cn(CC(=O)N3CCCC3)c3ccccc23)c1 [KM-21, N-(2,5-dimethylphenyl)-2-[1-(2-oxo-2-pyrrolidin-1-ylethyl)indol-3-yl]sulfanylacetamide]",< 4.52,< 5.30,–,–,–
"COc1cc([C@H]2c3cccn3CCN2C(=S)Nc2ccccc2C)cc(OC)c1OC [KM-27, N-(o-tolyl)-1-(3,4,5-trimethoxyphenyl)-3,4-dihydro, (1S)-N-(2-methylphenyl)-1-(3,4,5-trimethoxyphenyl)-3,4-dihydro-1H-pyrrolo[1,2-a]pyrazine-2-carbothioamide]",–,6.00,–,< 4.52,–
"COc1ccc(Cn2c(C(=O)O)c(CNC3CCCCC3)c3ccc(C)cc32)cc1 [KM-29, 3-[(cyclohexylamino)methyl]-1-[(4-methoxyphenyl)methyl]-6-methylindole-2-carboxylic acid]",< 4.52,5.92,3.21,–,–
"CCOC(=O)Cc1c(CN2CCN(C)CC2)c2ccccc2n1Cc1ccccc1 [KM-30, ethyl 2-[1-benzyl-3-[(4-methylpiperazin-1-yl)methyl]indol-2-yl]acetate]",< 4.52,5.30,0,–,–
"COc1ccc(NC(=S)N2CCn3cccc3C2c2ccc(OC)c(OC)c2)cc1 (stereo not drawn) [KM-31, 1-(3,4-dimethoxyphenyl)-N-(4-methoxyphenyl)-3,4-dihydro-1H-pyrrolo[1,2-a]pyrazine-2-carbothioamide]",< 4.52,5.35,–,–,–
"CCc1ccc([C@H](NC(=O)CCN2C(=O)[C@@H](C)Oc3ccccc32)c2cccs2)cc1 [KM-36, N-[(S)-(4-ethylphenyl)-thiophen-2-ylmethyl]-3-[(2R)-2-methyl-3-oxo-1,4-benzoxazin-4-yl]propanamide]",< 4.52,5.30,9.71,–,–
"CCOC(=O)c1c(-c2ccccc2)oc2ccc(O)c(CN3CCC(C)CC3)c12 [KM-39, 3-ethoxycarbonyl-4-[(4-methylpiperidin-1-ium-1-yl)methyl]-2-phenyl-1-benzofuran-5-olate]",< 4.52,5.30,–,–,–
"CCOC(=O)c1c(-c2ccccc2)oc2ccc(O)c(CN3CCC(C)CC3)c12.Cl [KM-40, ethyl 5-hydroxy-4-[(4-methylpiperidin-1-yl)methyl]-2-phenyl-1-benzofuran-3-carboxylate;hydrochloride]",–,–,–,< 4.52,41.295
"CC1Cc2nc(SCC(=O)NCc3ccc(F)cc3)n(Cc3ccccc3)c(=O)c2S1 (stereo not drawn) [KM-45, 2-[(3-benzyl-6-methyl-4-oxo-6,7-dihydrothieno[3,2-d]pyrimidin-2-yl)sulfanyl]-N-[(4-fluorophenyl)methyl]acetamide]",< 4.52,5.89,35.3,–,–
"COc1ccc2c(CNC3CCC(C)CC3)c(C(=O)O)n(Cc3ccccc3)c2c1 (stereo not drawn) [KM-47, 1-benzyl-6-methoxy-3-[[(4-methylcyclohexyl)amino]methyl]indole-2-carboxylic acid]",< 4.52,< 5.30,–,–,–
"CCOC(=O)c1c(-c2ccccc2)oc2ccc(O)c(CN3CCCCC3C)c12 (stereo not drawn) [KM-48, 2,3-dihydroxybutanedioic acid;ethyl 5-hydroxy-4-[(2-methylpiperidin-1-yl)methyl]-2-phenyl-1-benzofuran-3-carboxylate]",–,< 5.30,–,< 4.52,–
"CCOC(=O)c1c(C)c(-c2ccccc2)n(CC(=O)N2CCc3ccccc3C2)c1C [KM-49, ethyl 1-[2-(3,4-dihydro-1H-isoquinolin-2-yl)-2-oxoethyl]-2,4-dimethyl-5-phenylpyrrole-3-carboxylate]",< 4.52,5.30,–,–,–
"Cc1cc(C)cc(NC(=O)CSc2cn(CC(=O)N3CCCC3)c3ccccc23)c1 [KM-50, N-(3,5-dimethylphenyl)-2-[1-(2-oxo-2-pyrrolidin-1-ylethyl)indol-3-yl]sulfanylacetamide]",< 4.52,5.30,–,–,–
